Assay results reported in EP2451450B1, “Inhibitors of proline racemase enzymes for the treatment of Trypanosoma spp infections” (Institut Pasteur, priority 2009, dated 2011).

Biological target: T1, TcPRAC (Trypanosoma cruzi, UniProt Q4DA80)
T1 construct: implied only by nickel IMAC purification; made in house; host or cells: E. coli BL21 (DE3)
Assay: L-proline racemization assay by polarimetry
Format: biochemical
Conditions: for potency relative to PYC in terms of TcPRAC inhibition: based on the DAAOx test and polarimetry; for Racemization Inhibition: L-Proline 20 mM, 30 minutes 37°C, 0.25 µM TcPRAC
Method: Briefly, classical assays of Proline racemization induced by TcPRAC were performed in tubes in a final volume of 1.5 ml and optical rotations measured in a polarimeter 241MC (Perkin Elmer). Parallel assays of Proline racemization were transposed into microplates in a final volume of 100 µl, as follows: serial dilutions of L- Proline ranging from 40 mM to 2.5 mM were prepared in 0.2 M sodium acetate pH 6.0 containing 0.25 mM rTcPRAC and loaded into microplate wells in the presence or in the absence of 0 - 20 µM pyrrole-2 carboxylic acid (PYC) or of similar dilutions of unknown potential inhibitors. Specific control wells were included omitting the TcPRAC and/or the PYC.
The values presented in Table 2B correspond to racemization reactions performed in the absence or in the presence of the different inhibitors. Note that 6 µM PYC is necessary to inhibit 100 % of the racemization of 10-20 mM L-proline. Briefly, L-Proline (20 mM) were incubated for 30 minutes at 37°C in test tubes with or without 0.25 µM TcPRAC in 0.2 M sodium acetate pH 6. Reactions were stopped by heating at 65° C for 10 minutes. Reaction volumes were analyzed for D-Proline formation, by measuring optical rotations in a polarimeter (365nm).

T1 sequence (Q4DA80 32-423): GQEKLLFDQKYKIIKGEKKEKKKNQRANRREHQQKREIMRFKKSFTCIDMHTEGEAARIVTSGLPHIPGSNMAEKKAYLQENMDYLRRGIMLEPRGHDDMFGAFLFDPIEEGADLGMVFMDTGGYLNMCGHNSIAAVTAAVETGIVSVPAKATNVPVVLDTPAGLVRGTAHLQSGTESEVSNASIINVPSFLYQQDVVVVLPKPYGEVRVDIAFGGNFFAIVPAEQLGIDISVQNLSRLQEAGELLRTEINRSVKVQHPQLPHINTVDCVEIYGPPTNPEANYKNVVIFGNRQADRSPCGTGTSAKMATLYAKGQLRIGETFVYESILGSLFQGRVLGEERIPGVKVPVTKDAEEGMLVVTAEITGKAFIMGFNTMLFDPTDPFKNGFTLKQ

O=C(O)/C=C/C(=O)CBr [Br-OxoPA, (E)-5-bromo-4-oxopent-2-enoic acid] was tested, and the “potency relative to PYC in terms of TcPRAC inhibition” value was 4 fold, the “Racemization Inhibition” value (ligand 2.5 µM) was 50.0% and the “Racemization Inhibition” value (ligand 10.0 µM) was 81.3%.

With CC(=O)/C=C/C(=O)O [OxoPA, (E)-4-oxopent-2-enoic acid] the “potency relative to PYC in terms of TcPRAC inhibition” value was 2 fold and the “Racemization Inhibition” value (ligand 3.0 µM) was 50.0%.
